Data as given in US20050032873A1, “3-Amino chroman and 2-amino tetralin derivatives” (Wyeth, priority 2003, published 2005).
Read-outs that look alike come from different tables or passages of the source.

Assays:
5-HT1A receptor = target: T1, 5-HT1A receptor (Homo sapiens, UniProt P08908); test: 5-HT1A receptor affinity: displacement of [3H] 8-OH-DPAT; assay type: binding; design: expressed in transfected cells; conditions: for inhibition at 1 µM: read-out: 5-HT1A Receptor Affinity, % @ 1 μM; for Ki: displacement of [3H] 8-OH-DPAT, CHO cells stably transfected with human 5-HT1A receptors, read-out: 5-HT1A Receptor Affinity Ki
T1 sequence (P08908 1-422): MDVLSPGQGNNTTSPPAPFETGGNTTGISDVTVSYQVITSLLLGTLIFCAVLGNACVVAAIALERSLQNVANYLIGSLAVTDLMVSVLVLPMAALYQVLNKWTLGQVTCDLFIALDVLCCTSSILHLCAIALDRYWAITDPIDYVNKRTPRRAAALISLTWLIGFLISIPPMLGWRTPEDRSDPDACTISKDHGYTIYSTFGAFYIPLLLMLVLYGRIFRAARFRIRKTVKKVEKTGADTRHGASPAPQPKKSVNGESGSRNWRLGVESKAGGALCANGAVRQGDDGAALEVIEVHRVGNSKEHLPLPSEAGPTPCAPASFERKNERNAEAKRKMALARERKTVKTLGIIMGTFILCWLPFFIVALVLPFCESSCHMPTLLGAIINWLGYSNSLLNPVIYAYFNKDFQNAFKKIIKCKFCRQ

serotonin transporter = target: T2, serotonin transporter (Rattus norvegicus, UniProt P31652); test: 5-HT transporter affinity: displacement of 3H-paroxetine from male rat cortical membranes; assay type: binding; conditions: displacement of 3H-paroxetine, male rat cortical membranes
T2 construct: displace ^3H-paroxetine from male rat cortical membranes; from tissue; host or cells: male rat cortical membranes
T2 sequence (P31652 whole entry): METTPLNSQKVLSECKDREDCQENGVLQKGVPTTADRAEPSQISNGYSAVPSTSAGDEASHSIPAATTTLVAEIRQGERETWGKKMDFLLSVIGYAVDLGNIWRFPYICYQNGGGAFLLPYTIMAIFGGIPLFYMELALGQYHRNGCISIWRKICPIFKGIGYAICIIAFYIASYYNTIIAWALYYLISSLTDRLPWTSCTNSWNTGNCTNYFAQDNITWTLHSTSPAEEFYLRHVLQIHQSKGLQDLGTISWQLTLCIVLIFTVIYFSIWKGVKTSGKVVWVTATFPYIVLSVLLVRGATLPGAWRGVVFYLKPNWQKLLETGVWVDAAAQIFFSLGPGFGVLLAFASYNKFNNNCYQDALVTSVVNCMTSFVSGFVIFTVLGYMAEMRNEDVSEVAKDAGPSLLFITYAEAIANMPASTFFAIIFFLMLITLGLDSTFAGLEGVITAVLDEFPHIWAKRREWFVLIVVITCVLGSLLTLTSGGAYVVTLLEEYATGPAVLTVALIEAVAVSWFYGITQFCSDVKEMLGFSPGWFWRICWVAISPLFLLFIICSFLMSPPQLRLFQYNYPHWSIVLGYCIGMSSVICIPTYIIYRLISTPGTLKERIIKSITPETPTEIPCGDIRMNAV

[1] = target: T3, cloned human 5-HT1A receptors (Homo sapiens, UniProt P08908); test: 35S-GTPγS binding assay, 5-HT1A function; assay type: biochemical; conditions: for IC50: antagonist potency, reversal of 8-OH-DPAT, read-out: 5-HT1A Function GTPγS IC50; for EC50: agonist potency
T3 construct: expressed in transfected cells
T3 sequence (P08908 1-422): T1 sequence (P08908 1-422)

[2] = read-out: 5-HT Transporter Affinity Ki
[3] = maximum inhibitory effect, in brackets after IC50, read-out: 5-HT1A Function GTPγS (Imax)
[4] = maximum inhibitory effect, in brackets after IC50
[5] = maximum stimulatory effect, in brackets after EC50, read-out: 5-HT1A Function GTPγS (Emax)

| SMILES | inhibition at 1 µM (5-HT1A receptor) [%] | Ki (serotonin transporter; [2]) [nM] | IC50 [1] [nM] | Emax [1, 3] [%] | Ki (5-HT1A receptor) [nM] | 5-HT1A Function GTPγS (Imax) [1, 4] [%] | EC50 [1] [nM] | Emax [1, 5] [%] | Ki (serotonin transporter; 5-HT Transporter Affinity Ki (nM)) [nM] |
| --- | --- | --- | --- | --- | --- | --- | --- | --- | --- |
| COc1cccc2c1CC(N[C@H]1CC[C@H](c3c[nH]c4ccc(F)cc43)CC1)CO2 (relative stereo) [Compound 181b, trans-N-[4-(5-fluoro-1H-indol-3-yl)cyclohexyl]-5-methoxychroman-3-amine] | 46 | 3.07 | 115 | 44.6 | – | – | – | – | – |
| CC(CCc1c[nH]c2c(F)cc(F)cc12)N(CC1CC1)C1COc2c(F)ccc(C(N)=O)c2C1 (single isomer, unassigned) [Compound 154a, 3-{(cyclopropylmethyl)[3-(5,7-difluoro-1H-indol-3-yl)-1-methylpropyl]amino}-8-fluorochromane-5-carboxamide] | – | 65 | 235 | – | 6.35 | 100 | – | – | – |
| CC(CCc1c[nH]c2c(F)cc(F)cc12)N(CC1CC1)C1COc2c(F)ccc(C(N)=O)c2C1 (single isomer, unassigned) [Compound 154d, 3-{(cyclopropylmethyl)[3-(5,7-difluoro-1H-indol-3-yl)-1-methylpropyl]amino}-8-fluorochromane-5-carboxamide] | 2 | 4.81 | 7070 | – | – | 71 | – | – | – |
| NC(=O)c1ccc(F)c2c1C[C@@H](NCC1CCc3c([nH]c4ccc(F)cc34)C1)CO2 (single isomer, unassigned; (+)) [Compound 179a] | 48 | 33.2 | 9030 | 100 | – | – | – | – | – |
| NC(=O)c1ccc(F)c2c1CC(N(CC1CCc3[nH]c4ccc(F)cc4c3C1)C1CCC1)CO2 (single isomer, unassigned; (-)) [Compound 174a, (−)-3-{cyclobutyl[(6-fluoro-2,3,4,9-tetrahydro-1H-carbazol-3-yl)methyl]amino}-8-fluorochromane-5-carboxamide] | 49 | 855 | 8000 | – | – | 50 | – | – | – |
| CC(C1CC1)N(CCCc1c[nH]c2ccc(F)cc12)C1COc2c(F)ccc(C(N)=O)c2C1 (stereo not shown) [Compound 6, 3-{(1-cyclopropylethyl)[3-(5-fluoro-1H-indol-3-yl)propyl]amino}-8-fluorochromane-5-carboxamide] | 30 | 18.9 | 4840 | 87 | – | – | – | – | – |
| O=C(O)c1ccc(F)c2c1CC(N(CCCc1c[nH]c3ccc(F)cc13)C1CCC1)CO2 (stereo not shown) [Compound 56, 3-{cyclobutyl[3-(5-fluoro-1H-indol-3-yl)propyl]amino}-8-fluorochromane-5-carboxylic acid] | 4 | 499 | 5000 | 50 | – | – | – | – | – |
| COC(=O)c1ccc(F)c2c1CC(N(CCCCc1c[nH]c3ccc(F)cc13)C1CCC1)CO2 (stereo not shown) [Compound 58, Methyl 3-{cyclobutyl[4-(5-fluoro-1H-indol-3-yl)butyl]amino}-8-fluorochromane-5-carboxylate] | – | 35.6 | – | – | 202 | – | 8020 | 49 | – |
| COC(=O)c1ccc(F)c2c1C[C@H](N(CCCCc1c[nH]c3ccc(F)cc13)C1CCC1)CO2 [Compound 58a, Methyl (3S)-3-{cyclobutyl[4-(5-fluoro-1H-indol-3-yl)butyl]amino}-8-fluorochromane-5-carboxylate] | 0 | 46.6 | 1960 | 25 | – | – | – | – | – |
| COC(=O)c1ccc(F)c2c1C[C@@H](N(CCCCc1c[nH]c3ccc(F)cc13)C1CCC1)CO2 [Compound 58b, Methyl (3R)-3-{cyclobutyl[4-(5-fluoro-1H-indol-3-yl)butyl]amino}-8-fluorochromane-5-carboxylate] | – | 29.2 | 626 | 94 | 138 | – | – | – | – |
| CCCCNC(=O)c1ccc(F)c2c1CC(N(CCCc1c[nH]c3ccc(F)cc13)C1CCC1)CO2 (stereo not shown) [Compound 62, N-butyl-3-{cyclobutyl[3-(5-fluoro-1H-indol-3-yl)propyl]amino}-8-fluorochromane-5-carboxamide] | 40 | 4.55 | 1900 | 50 | – | – | – | – | – |
| O=C(NC1CCCC1)c1ccc(F)c2c1CC(N(CCCc1c[nH]c3ccc(F)cc13)C1CCC1)CO2 (stereo not shown) [Compound 66, 3-{cyclobutyl[3-(5-fluoro-1H-indol-3-yl)propyl]amino}-N-cyclopentyl-8-fluorochromane-5-carboxamide] | 41 | 5.65 | – | – | – | – | 7500 | 38 | – |
| O=C(NC1CCCCC1)c1ccc(F)c2c1CC(N(CCCc1c[nH]c3ccc(F)cc13)C1CCC1)CO2 (stereo not shown) [Compound 67, 3-{cyclobutyl[3-(5-fluoro-1H-indol-3-yl)propyl]amino}-N-cyclohexyl-8-fluorochromane-5-carboxamide] | 44 | 19.8 | 1970 | 76 | – | – | – | – | – |
| O=C(NCC1CC1)c1ccc(F)c2c1CC(N(CCCc1c[nH]c3ccc(F)cc13)C1CCC1)CO2 (stereo not shown) [Compound 68, 3-{cyclobutyl[3-(5-fluoro-1H-indol-3-yl)propyl]amino}-N-(cyclopropylmethyl)-8-fluorochromane-5-carboxamide] | – | 4.4 | 1300 | 50 | 161 | – | – | – | – |
| O=C(Nc1ccccc1)c1ccc(F)c2c1CC(N(CCCc1c[nH]c3ccc(F)cc13)C1CCC1)CO2 (stereo not shown) [Compound 70, 3-{cyclobutyl[3-(5-fluoro-1H-indol-3-yl)propyl]amino}-8-fluoro-N-phenylchromane-5-carboxamide] | 36 | 37.2 | – | – | – | – | 1800 | 22 | – |
| CCCCCN(CCCc1c[nH]c2ccc(F)cc12)C1COc2c(F)ccc(C(N)=O)c2C1 (stereo not shown) [Compound 71, 8-fluoro-3-[[3-(5-fluoro-1H-indol-3-yl)propyl](pentyl)amino]chromane-5-carboxamide] | 44 | 212 | 8000 | 13 | – | – | – | – | – |
| NC(=O)c1ccc(F)c2c1CC(NCCc1c[nH]c3ccc(F)cc13)CO2 (stereo not shown) [Compound 75, 8-fluoro-3-{[2-(5-fluoro-1H-indol-3-yl)ethyl]amino}chromane-5-carboxamide] | 0 | 1030 | 2150 | 40 | – | – | – | – | – |
| NC(=O)c1ccc(F)c2c1CC(NCCCCc1c[nH]c3ccc(F)cc13)CO2 (stereo not shown) [Compound 79, 8-fluoro-3-{[4-(5-fluoro-1H-indol-3-yl)butyl]amino}chromane-5-carboxamide] | 43 | 4.46 | 2660 | 63 | – | – | – | – | – |
| CCN(CCc1c[nH]c2ccc(F)cc12)C1COc2c(F)ccc(C(=O)NC)c2C1 (stereo not shown) [Compound 85, 3-{ethyl[2-(5-fluoro-1H-indol-3-yl)ethyl]amino}-8-fluoro-N-methylchromane-5-carboxamide] | 46 | – | 3580 | 72 | – | – | – | – | 35.4 |
| CNC(=O)c1ccc(F)c2c1CC(NCCCc1c[nH]c3ccc(F)cc13)CO2 (stereo not shown) [Compound 88, 8-fluoro-3-{[3-(5-fluoro-1H-indol-3-yl)propyl]amino}-N-methylchromane-5-carboxamide] | – | 12.2 | – | – | 54.6 | – | 1780 | 94 | – |
| CCN(CCCc1c[nH]c2ccc(F)cc12)C1COc2c(F)ccc(C(=O)NC)c2C1 (stereo not shown) [Compound 89, 3-{ethyl[3-(5-fluoro-1H-indol-3-yl)propyl]amino}-8-fluoro-N-methylchromane-5-carboxamide] | – | 1.08 | – | – | 21.2 | – | 110 | 62 | – |
| CNC(=O)c1ccc(F)c2c1CC(NCCCCc1c[nH]c3ccc(F)cc13)CO2 (stereo not shown) [Compound 92, 8-fluoro-3-{[4-(5-fluoro-1H-indol-3-yl)butyl]amino}-N-methylchromane-5-carboxamide] | 47 | 7.95 | – | – | – | – | 1170 | 50 | – |
| COc1cccc2c(CCCNC3COc4c(F)ccc(C(N)=O)c4C3)c[nH]c12 (stereo not shown) [Compound 99, 8-fluoro-3-{[3-(7-methoxy-1H-indol-3-yl)propyl]amino}chromane-5-carboxamide] | 48 | 525 | 4020 | 100 | – | – | – | – | – |
| NC(=O)c1ccc(F)c2c1OCC(NCCCc1c[nH]c3ccc(F)cc13)C2 (stereo not shown) [Compound 119, 5-fluoro-3-{[3-(5-fluoro-1H-indol-3-yl)propyl]amino}chromane-8-carboxamide] | – | 14.2 | – | – | 36.9 | – | 3160 | 100 | – |
| CCCN(CCCc1c[nH]c2ccc(F)cc12)C1COc2c(C(N)=O)ccc(F)c2C1 (stereo not shown) [Compound 120, 5-fluoro-3-[[3-(5-fluoro-1H-indol-3-yl)propyl](propyl)amino]chromane-8-carboxamide] | – | 22.5 | – | – | 139 | – | 1100 | 67 | – |
